The source of these data is patent publication US11453657B2 (GlaxoSmithKline Intellectual Property Development Limited, priority 2018, dated 2022).

This assay relates to P. falciparum infected erythrocytes. Nature of the assay: P. falciparum growth inhibition assay ([3H]hypoxanthine incorporation). The assay is classed as cell-based, Plasmodium falciparum. How it is done: P. falciparum Growth Inhibition Assay.
The sensitivity of P. falciparum infected erythrocytes to the compound was determined in duplicate using the [3H]hypoxanthine incorporation method with an inoculum of 0.5% parasitemia (ring stage) and 2% hematocrit. The parasites were grown in RPMI 1640, 25 mM HEPES and supplemented with 5% Albumax. Plates are incubated at 37° C., 5% CO2, 5% O2, 90% N2. After 24 h of incubation, [3H]hypoxanthine is added and plates are incubated for another 24 h. After that period, plates are harvested on a glass fiber filter using a TOMTEC Cell harvester 96. Filters are dried and melt on scintillator sheets and the bound radioactivity is quantified by use of a Wallac Microbeta Trilux (Model 1450 LS—Perkin Elmer). IC50s are determined using Grafit 7 program (Grafit program; Erithacus Software, Horley, Surrey, United Kingdom).
Each example compound was tested generally in accordance with the above-mentioned assay and the PfIC50 value for each compound is reported in the Table below and according to the following: […]

[1] abbreviates: Plasmodium falciparum, Erythrocyte, [3H]hypoxanthine incorporation, 0.5% parasitemia, 2% hematocrit, 48 h, read-out: PfIC50 Media.
Setting [2] is: [3H]hypoxanthine incorporation, 0.5% parasitemia, 2% hematocrit, 48 h, read-out: PfIC50 Media.
Where [3] appears, read: Plasmodium falciparum, Erythrocyte, read-out: average PfIC50.

Where two headings read alike, the source gives them in different places.

Turning to `O=C(c1ccc(OC[C@H](O)Cn2ccnc2)cc1)N1CC[C@H](c2ccc(F)cc2)C1` [Example 20, ((R)-3-(4-fluorophenyl)pyrrolidin-1-yl)(4-((R)-2-hydroxy-3-(1H-imidazol-1-yl)propoxy)phenyl)methanone], the IC50 under setting [1] was less than 100 nM.

`O=C(c1ccc(OCC(O)Cc2cscn2)cc1)N1CC[C@H](c2ccc(F)cc2)C1` (single isomer, unassigned) [Example 35b]: the IC50 under setting [2] is 100 to 500 nM.

For the compound `O=C(c1ccc(OC[C@H](O)Cn2ncnn2)cc1)N1CC[C@H](c2ccc(F)cc2)C1` [Example 7, ((R)-3-(4-Fluorophenyl)pyrrolidin-1-yl)(4-((R)-2-hydroxy-3-(2H-tetrazol-2-yl)propoxy)phenyl)methanone], the IC50 is, setting by setting: under setting [1], less than 100 nM; under setting [3], not above 50 nM.

Take `COc1ccc(C2CCN(C(=O)c3ccc(OC[C@H](O)Cn4ncnn4)cc3)C2)cc1` (single isomer, unassigned) [Example 44b]: the IC50 under setting [2] was in the range of 500 to 1000 nM.

For the compound `CC(C)(COc1ccc(C(=O)N2CC[C@H](c3ccc(F)cc3)C2)cc1)Cn1cnnn1` [Example 2, (R)-(4-(2,2-Dimethyl-3-(1H-tetrazol-1-yl)propoxy)phenyl)(3-(4-fluorophenyl)pyrrolidin-1-yl)methanone], under setting [1], the IC50 fell in the range of 500 to 1000 nM.

In the case of `O=C(c1ccc(OC[C@H](O)Cn2ncnn2)cc1)N1CCC(c2ccccc2F)C1` (single isomer, unassigned) [Example 40a], the IC50 by setting is: under setting [1], less than 100 nM; under setting [3], not above 50 nM.

In the case of `CC(O)(COc1ccc(C(=O)N2CC[C@H](c3ccc(F)cc3)C2)cc1)Cn1cnnn1` (stereo partly drawn) [Example 10b, ((R)-3-(4-Fluorophenyl)pyrrolidin-1-yl)(4-(2-hydroxy-2-methyl-3-(1H-tetrazol-1-yl)propoxy)phenyl)methanone], the IC50 under setting [2] lay in the range of 1000 to 5000 nM.
